Test results taken from ChEMBL document CHEMBL5500393, “Discovery and Optimization of Novel SaFabI Inhibitors as Specific Therapeutic Agents for MRSA Infection” (J Med Chem, 2024).

How the values were obtained:
Escherichia coli = assay: Antimicrobial activity against Escherichia coli ATCC25922 measured after 24 hrs by CLSI protocol based microdilution method; type: functional
Enterococcus faecalis = assay: Antimicrobial activity against Enterococcus faecalis ATCC29212 measured after 24 hrs by CLSI protocol based microdilution method; type: functional
[1] = target: T1, Enoyl-[acyl-carrier-protein] reductase [NADPH] FabI (Staphylococcus aureus) (UniProt Q6GI75); assay: Inhibition of N-terminal his 6 tagged Staphylococcus aureus Fabi (1 to […] residues) expressed in Escherichia coli BL21 at 1 uM incubated for 30 mins in presence of NADPH by fluorescence based microplate reader analysis relative to control
T1 sequence (whole entry): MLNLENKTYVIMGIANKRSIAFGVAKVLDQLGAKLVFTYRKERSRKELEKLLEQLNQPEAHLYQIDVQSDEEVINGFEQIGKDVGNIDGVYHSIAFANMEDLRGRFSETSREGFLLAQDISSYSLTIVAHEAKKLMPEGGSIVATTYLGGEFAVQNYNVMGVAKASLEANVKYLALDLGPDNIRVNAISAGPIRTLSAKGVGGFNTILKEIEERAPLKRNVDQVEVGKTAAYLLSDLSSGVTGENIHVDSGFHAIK

Acinetobacter baumannii = assay: Antimicrobial activity against Acinetobacter baumannii ATCC19606 measured after 24 hrs by CLSI protocol based microdilution method; type: functional
Staphylococcus aureus [2] = assay: Antimicrobial activity against […] Staphylococcus aureus ATCC33591 measured after 24 hrs by CLSI protocol based microdilution method; type: functional
Pseudomonas aeruginosa = assay: Antimicrobial activity against Pseudomonas aeruginosa PAO1 measured after 24 hrs by CLSI protocol based microdilution method; type: functional
Staphylococcus aureus [3] = assay: Antimicrobial activity against methicillin-susceptible Staphylococcus aureus ATCC25923 measured after 24 hrs by CLSI protocol based microdilution method; type: functional
[4] = target: T1, Enoyl-[acyl-carrier-protein] reductase [NADPH] FabI (Staphylococcus aureus); assay: Inhibition of N-terminal his 6 tagged Staphylococcus aureus Fabi (1 to […] residues) expressed in Escherichia coli BL21 at 10 uM incubated for 30 mins in presence of NADPH by fluorescence based microplate reader analysis relative to control
Enterococcus faecium = assay: Antimicrobial activity against Enterococcus faecium ATCC19434 measured after 24 hrs by CLSI protocol based microdilution method; type: functional
Staphylococcus aureus [5] = assay: Antimicrobial activity against […] Staphylococcus aureus NRS271 measured after 24 hrs by CLSI protocol based microdilution method; type: functional
Staphylococcus aureus [6] = assay: Antimicrobial activity against […] Staphylococcus aureus USA300 measured after 24 hrs by CLSI protocol based microdilution method; type: functional
Staphylococcus aureus [7] = assay: Antimicrobial activity against methicillin-susceptible Staphylococcus aureus ATCC29213 measured after 24 hrs by CLSI protocol based microdilution method; type: functional
Candida albicans = assay: Antimicrobial activity against Candida albicans SC5314 measured after 48 hrs by CLSI protocol based microdilution method; type: functional
Staphylococcus aureus [8] = assay: Antimicrobial activity against […] Staphylococcus aureus ATCC43300 measured after 24 hrs by CLSI protocol based microdilution method; type: functional

Row | SMILES | MIC (Escherichia coli) [µg/mL] | MIC (Enterococcus faecalis) [µg/mL] | inhibition [1] [%] | MIC (Acinetobacter baumannii) [µg/mL] | MIC (Staphylococcus aureus [2]) [µg/mL] | MIC (Pseudomonas aeruginosa) [µg/mL] | MIC (Staphylococcus aureus [3]) [µg/mL] | inhibition [4] [%] | MIC (Enterococcus faecium) [µg/mL] | MIC (Staphylococcus aureus [5]) [µg/mL] | MIC (Staphylococcus aureus [6]) [µg/mL] | MIC (Staphylococcus aureus [7]) [µg/mL] | MIC (Candida albicans) [µg/mL] | MIC (Staphylococcus aureus [8]) [µg/mL]
1 | Cn1c(C(=O)NCCC(=O)NCc2ccccc2)nc2ccccc21 | > 32 | > 32 | 5.7 | > 32 | > 32 | > 32 | > 32 | 8.6 | > 32 | > 32 | > 32 | > 32 | > 32 | > 32
2 | Cn1c(C2CC(=O)N(Cc3ccccc3)C2)nc2ccccc21 (centres undefined) | > 32 | > 32 | 4.6 | > 32 | > 32 | > 32 | > 32 | 27.9 | > 32 | > 32 | > 32 | > 32 | > 32 | > 32
3 | Cn1c(C2CC(=O)N(c3ccc(N4CCOCC4)cc3)C2)nc2ccccc21 (centres undefined) | > 32 | > 32 | 8.2 | > 32 | > 32 | > 32 | > 32 | 7.7 | > 32 | > 32 | > 32 | > 32 | > 32 | > 32
4 | Cc1cccc(C(=O)NCCNC(=O)CCc2nc3ccccc3n2C)c1C | > 32 | > 32 | 5.2 | > 32 | > 32 | > 32 | > 32 | 25.6 | > 32 | > 32 | > 32 | > 32 | > 32 | > 32
5 | Cc1cccc(NC(=O)CCc2nc3ccccc3n2C)c1C | > 32 | > 32 | 4.5 | > 32 | > 32 | > 32 | > 32 | 10 | > 32 | > 32 | > 32 | > 32 | > 32 | > 32
6 | Cn1c(C2CC(=O)N(c3ccc(F)c(F)c3)C2)nc2ccccc21 (centres undefined) | > 32 | > 32 | 2.7 | > 32 | > 32 | > 32 | > 32 | 40.1 | > 32 | > 32 | > 32 | > 32 | > 32 | > 32
7 | Cc1cccc(NC(=O)CCNC(=O)CCc2nc3ccccc3n2C)c1C | > 32 | > 32 | 6.9 | > 32 | > 32 | > 32 | > 32 | 33.2 | > 32 | > 32 | > 32 | > 32 | > 32 | > 32
8 | Cc1cccc(N2CCC(c3nc4ccccc4n3C)C2)c1C (centres undefined) | > 32 | > 32 | 5.4 | > 32 | > 32 | > 32 | > 32 | 6.2 | > 32 | > 32 | > 32 | > 32 | > 32 | > 32
9 | Cc1cccc(NC(=O)c2cccc(NC(=O)c3nc4ccccc4n3C)c2)c1C | > 32 | > 32 | 3.7 | > 32 | > 32 | > 32 | > 32 | 5 | > 32 | > 32 | > 32 | > 32 | > 32 | > 32
10 | O=C1CC(c2nc3ccccc3[nH]2)CN1c1cccc2ccccc12 (centres undefined) | > 32 | > 32 | 3.2 | > 32 | > 32 | > 32 | > 32 | 15.4 | > 32 | > 32 | > 32 | > 32 | > 32 | > 32
11 | Cn1ccc(N2CC(c3nc4ccccc4n3C)CC2=O)n1 (centres undefined) | > 32 | > 32 | 5.1 | > 32 | > 32 | > 32 | > 32 | 4.3 | > 32 | > 32 | > 32 | > 32 | > 32 | > 32
12 | COc1cccc(N2CC(c3nc4ccccc4n3C)CC2=O)c1OC (centres undefined) | > 32 | > 32 | 3.8 | > 32 | > 32 | > 32 | > 32 | 45.2 | > 32 | > 32 | > 32 | > 32 | > 32 | > 32
13 | Cn1c(C2CC(=O)N(c3ccc4ccccc4c3)C2)nc2ccccc21 (centres undefined) | > 32 | > 32 | 2.8 | > 32 | > 32 | > 32 | > 32 | 51.7 | > 32 | > 32 | > 32 | > 32 | > 32 | > 32
14 | Cn1c(CCC(=O)Nc2ccccc2)nc2ccccc21 | > 32 | > 32 | 7.7 | > 32 | > 32 | > 32 | > 32 | 7.8 | > 32 | > 32 | > 32 | > 32 | > 32 | > 32
15 | Cc1cccc(N2CCC(c3nc4ccccc4n3C)CC2)c1C | > 32 | > 32 | 2.8 | > 32 | > 32 | > 32 | > 32 | 2 | > 32 | > 32 | > 32 | > 32 | > 32 | > 32
16 | Cn1c(C2CC(=O)N(c3cccc(-c4ccccc4)c3)C2)nc2ccccc21 (centres undefined) | > 32 | > 32 | 3.5 | > 32 | > 32 | > 32 | > 32 | 10.1 | > 32 | > 32 | > 32 | > 32 | > 32 | > 32
17 | Cc1c(N)cccc1N1CC(c2nc3ccccc3n2C)CC1=O (centres undefined) | > 32 | > 32 | 6.1 | > 32 | > 32 | > 32 | > 32 | 50.2 | > 32 | > 32 | > 32 | > 32 | > 32 | > 32
18 | Cn1c(C2CC(=O)N(c3ccc4ncsc4c3)C2)nc2ccccc21 (centres undefined) | > 32 | > 32 | 4.1 | > 32 | > 32 | > 32 | > 32 | 43.4 | > 32 | > 32 | > 32 | > 32 | > 32 | > 32
19 | Cn1c(C2CC(=O)N(c3ccc(Br)c(Br)c3)C2)nc2ccccc21 (centres undefined) | > 32 | > 32 | 4.8 | > 32 | > 32 | > 32 | > 32 | 45.4 | > 32 | > 32 | > 32 | > 32 | > 32 | > 32
20 | Cc1c(Br)cccc1N1CC(c2nc3ccccc3[nH]2)CC1=O (centres undefined) | > 32 | > 32 | 11.6 | > 32 | > 32 | > 32 | > 32 | 36.6 | > 32 | > 32 | > 32 | > 32 | > 32 | > 32
21 | Cn1c(CCC(=O)NCCNC(=O)Cc2ccccc2)nc2ccccc21 | > 32 | > 32 | 3.6 | > 32 | > 32 | > 32 | > 32 | 21.4 | > 32 | > 32 | > 32 | > 32 | > 32 | > 32
